What was measured:
[1] = system: C2C12 muscle cells; assay: Analysis of glucose absorption (2-deoxyglucose) in differentiated C2C12 muscle cells; format: cell-based; conditions: test materials 10 μM, times relative to control group
In short: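 Uptake of 0.2 μCi 2-deoxyglucose over 20 min, counted radiometrically in lysed cells. Before tracer, compounds (10 μM) were applied for 30 min to C2C12 cells differentiated 6 days in 1% serum and equilibrated 3 h in 5 mM glucose KRB.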

[2] = system: AMPK; assay: Measurement of AMPK activity by Western blot in C2C12 cells; format: cell-based; parameters: key to AMPK activity (degree of phosphorylation of serine-79 and threonine-172): fold increase in threonine-172 phosphorylation; AMPK activity (degree of phosphorylation of serine-79): unit not given here; conditions: 10 μM for 50 minutes; for AMPK activity (degree of phosphorylation of serine-79 and threonine-172): no superscript: Western blot of serine-79 and threonine-172 phosphorylation; for AMPK activity (class: degree of phosphorylation of threonine-172): strong/mild/weak; for AMPK activity (degree of phosphorylation of serine-79): footnote a: Western blot of serine-79 phosphorylation
In short: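 Western blot readout of AMPK Thr-172 and ACC Ser-79 phosphorylation, normalised against ERK, served as the activity measure. Cells were C2C12 after differentiation, treated 50 minutes with 10 μM test material. Grading by Thr-172 increase: ≥3-fold strong, 1-3-fold mild, <1-fold weak.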

COc1ccc(CNc2nc(N3CCOCC3)nc3ccccc23)cc1 [Compound 285, (4-Methoxybenzyl)-(2-morpholino-4-ylquinazolino-4-yl)-amine]
Glucose absorption [1]: 0.8
AMPK activity (degree of phosphorylation of serine-79 and threonine-172) [2]: 1.6

CN1CCN(c2nc(NCc3ccc4c(c3)OCO4)c3ccccc3n2)CC1 [Compound 310, Benzo[1,3]dioxol-5-ylmethyl-[2-(4-methylpiperazino-1-yl)-quinazolino-4-yl]-amine]
Glucose absorption [1]: 0.9
AMPK activity (degree of phosphorylation of serine-79 and threonine-172) [2]: 1.6

c1ccc2c(NCc3ccc4c(c3)OCO4)nc(N3CCCC3)nc2c1 [Compound 307, Benzo[1,3]dioxol-5-ylmethyl-(2-pyrrolidino-1-ylquinazolino-4-yl)-amine]
Glucose absorption [1]: 0.8
AMPK activity (degree of phosphorylation of serine-79 and threonine-172) [2]: 2.0

CCCNc1nc(-c2ccccc2)nc2ccccc12 [Compound 61, (2-Phenylquinazolino-4-yl)-propylamine]
Glucose absorption [1]: 1.9
AMPK activity (class: degree of phosphorylation of threonine-172) [2]: weak (“weak” means that the degree of phosphorylation of threonine-172 increased by less than 1 time)

Cc1nc(NCCc2cccc(F)c2)c2ccccc2n1 [Compound 172, [2-(3-Fluorophenyl)-ethyl]-(2-methylquinazolino-4-yl)-amine]
Glucose absorption [1]: 2.6
AMPK activity (degree of phosphorylation of serine-79 and threonine-172) [2]: 4.4
AMPK activity (class: degree of phosphorylation of threonine-172) [2]: strong (“strong” means that the degree of phosphorylation of threonine-172 increased by 3 times or more)

CC(C)(C)c1nc(NCCc2cccc(F)c2)c2ccccc2n1 [Compound 196, (2-tert-Butylquinazolino-4-yl)-[2-(3-fluorophenyl)-ethyl]-amine]
Glucose absorption [1]: 2.1
AMPK activity (degree of phosphorylation of serine-79 and threonine-172) [2]: 4.8
AMPK activity (class: degree of phosphorylation of threonine-172) [2]: strong (“strong” means that the degree of phosphorylation of threonine-172 increased by 3 times or more)

Fc1ccc(CNc2nc(-c3ccccc3)nc3ccccc23)c(F)c1 [Compound 134, (2,4-Difluorobenzyl)-(2-phenylquinazolino-4-yl)-amine]
Glucose absorption [1]: 2.6
AMPK activity (degree of phosphorylation of serine-79 and threonine-172) [2]: 1.8
AMPK activity (class: degree of phosphorylation of threonine-172) [2]: strong (“strong” means that the degree of phosphorylation of threonine-172 increased by 3 times or more)

COc1ccccc1CNc1nc(C2CC2)nc2ccccc12 [Compound 382, (2-Cyclopropylquinazolino-4-yl)-(2-methoxybenzyl)-amine]
Glucose absorption [1]: 1.2
AMPK activity (degree of phosphorylation of serine-79 and threonine-172) [2]: 2.2

COc1cc(CNc2nc(C(C)C)nc3ccccc23)cc(OC)c1 [Compound 323, (3,5-Dimethoxybenzyl)-(2-isopropylquinazolino-4-yl)-amine]
Glucose absorption [1]: 1.1
AMPK activity (degree of phosphorylation of serine-79 and threonine-172) [2]: 1.2

CCCc1nc(NCc2ccc(OC)cc2)c2ccccc2n1 [Compound 395, (4-Methoxybenzyl)-(2-propylquinazolino-4-yl)-amine]
Glucose absorption [1]: 1.2
AMPK activity (degree of phosphorylation of serine-79 and threonine-172) [2]: 7.0

CC1CCCC(Nc2nc(-c3ccccc3)nc3ccccc23)C1C (stereo not drawn) [Compound 143, (2,3-Dimethylcyclohexyl)-(2-phenylquinazolino-4-yl)-amine]
Glucose absorption [1]: 2.3
AMPK activity (degree of phosphorylation of serine-79 and threonine-172) [2]: 2.4
AMPK activity (class: degree of phosphorylation of threonine-172) [2]: strong (“strong” means that the degree of phosphorylation of threonine-172 increased by 3 times or more)

COc1ccc(CNc2nc(C(OC)c3ccccc3)nc3ccccc23)c(OC)c1 (stereo not drawn) [Compound 368, (2,4-Dimethoxybenzyl)-[2-(methoxyphenylmethyl)-quinazolino-4-yl]-amine]
Glucose absorption [1]: 1.1
AMPK activity (degree of phosphorylation of serine-79 and threonine-172) [2]: 5.9

CC(C)c1nc(NCCCCc2ccccc2)c2ccccc2n1 [Compound 180, (2-Isopropylquinazolino-4-yl)-(4-phenylbutyl)-amine]
Glucose absorption [1]: 4.1
AMPK activity (degree of phosphorylation of serine-79 and threonine-172) [2]: 3.9
AMPK activity (class: degree of phosphorylation of threonine-172) [2]: strong (“strong” means that the degree of phosphorylation of threonine-172 increased by 3 times or more)

c1ccc(-c2nc(NCC(c3ccccc3)c3ccccc3)c3ccccc3n2)cc1 [Compound 133, (2,2-Diphenylethyl)-(2-phenylquinazolino-4-yl)-amine]
Glucose absorption [1]: 2.1
AMPK activity (degree of phosphorylation of serine-79 and threonine-172) [2]: 1.3
AMPK activity (class: degree of phosphorylation of threonine-172) [2]: mild (“mild” means that the degree of phosphorylation of threonine-172 increased by 1 to 3 times)

Cc1nc(NCc2cccc(F)c2)c2ccccc2n1 [Compound 171, (3-Fluorobenzyl)-(2-methylquinazolino-4-yl)-amine]
Glucose absorption [1]: 2.2
AMPK activity (degree of phosphorylation of serine-79 and threonine-172) [2]: 6.6
AMPK activity (class: degree of phosphorylation of threonine-172) [2]: strong (“strong” means that the degree of phosphorylation of threonine-172 increased by 3 times or more)

CCCc1nc(NCc2cccc(OC)c2)c2ccccc2n1 [Compound 394, (3-Methoxybenzyl)-(2-propylquinazolino-4-yl)-amine]
Glucose absorption [1]: 1.3
AMPK activity (degree of phosphorylation of serine-79 and threonine-172) [2]: 4.5

CC(C)c1nc(NCc2cccc(F)c2)c2ccccc2n1 [Compound 183, (3-Fluorobenzyl)-(2-isopropylquinazolino-4-yl)-amine]
Glucose absorption [1]: 3.3
AMPK activity (degree of phosphorylation of serine-79 and threonine-172) [2]: 2.6
AMPK activity (class: degree of phosphorylation of threonine-172) [2]: strong (“strong” means that the degree of phosphorylation of threonine-172 increased by 3 times or more)

COc1ccc(CNc2nc(C(C)c3ccccc3)nc3ccccc23)cc1OC (stereo not drawn) [Compound 377, (3,4-Dimethoxybenzyl)-[2-(1-phenylethyl)-quinazolino-4-yl]-amine]
Glucose absorption [1]: 1.1
AMPK activity (degree of phosphorylation of serine-79 and threonine-172) [2]: 2.3

FC(F)(F)c1cccc(CNc2nc(-c3ccccn3)nc3ccccc23)c1 [Compound 226, (2-Pyridino-2-ylquinazolino-4-yl)-(3-trifluoromethylbenzyl)-amine]
Glucose absorption [1]: 1.9
AMPK activity (degree of phosphorylation of serine-79 and threonine-172) [2]: 4.3
AMPK activity (class: degree of phosphorylation of threonine-172) [2]: strong (“strong” means that the degree of phosphorylation of threonine-172 increased by 3 times or more)

c1ccc(-c2nc(NCc3cccc4ccccc34)c3ccccc3n2)nc1 [Compound 229, Naphthaleno-1-ylmethyl-(2-pyridino-2-ylquinazolino-4-yl)-amine]
Glucose absorption [1]: 1.9
AMPK activity (degree of phosphorylation of serine-79 and threonine-172) [2]: 4.7
AMPK activity (class: degree of phosphorylation of threonine-172) [2]: strong (“strong” means that the degree of phosphorylation of threonine-172 increased by 3 times or more)

COc1ccccc1CNc1nc(N2CCCC2)nc2ccccc12 [Compound 275, (2-Methoxybenzyl)-(2-pyrrolidino-1-ylquinazolino-4-yl)-amine]
Glucose absorption [1]: 0.8
AMPK activity (degree of phosphorylation of serine-79 and threonine-172) [2]: 2.1

ClC(Cl)(Cl)c1nc(NCCCCc2ccccc2)c2ccccc2n1 [Compound 6, (4-Phenylbutyl)-(2-trichloromethylquinazolino-4-yl)-amine]
Glucose absorption [1]: 1.4
AMPK activity (degree of phosphorylation of serine-79) [2]: 4.7^a

COc1cccc(CNc2nc(C(OC)c3ccccc3)nc3ccccc23)c1OC (stereo not drawn) [Compound 364, (2,3-Dimethoxybenzyl)-[2-(methoxyphenylmethyl)-quinazolino-4-yl]-amine]
Glucose absorption [1]: 1.3
AMPK activity (degree of phosphorylation of serine-79 and threonine-172) [2]: 1.2

COc1ccc(CNc2nc(C(C)C)nc3ccccc23)cc1 [Compound 177, (2-Isopropylquinazolino-4-yl)-(4-methoxybenzyl)-amine]
Glucose absorption [1]: 2.8
AMPK activity (degree of phosphorylation of serine-79 and threonine-172) [2]: 5.5
AMPK activity (class: degree of phosphorylation of threonine-172) [2]: strong (“strong” means that the degree of phosphorylation of threonine-172 increased by 3 times or more)

CCSc1nc(NC(C)C)c2ccccc2n1 [Compound 8, (2-Ethylsulfanylquinazolino-4-yl)-isopropylamine]
Glucose absorption [1]: 1.2
AMPK activity (degree of phosphorylation of serine-79) [2]: 3.0^a

CCCc1nc(NCc2cc(OC)cc(OC)c2)c2ccccc2n1 [Compound 398, (3,5-Dimethoxybenzyl)-(2-propylquinazolino-4-yl)-amine]
Glucose absorption [1]: 1.4
AMPK activity (degree of phosphorylation of serine-79 and threonine-172) [2]: 7.8

COc1ccc(OC)c(CNc2nc(-c3ccccc3)nc3ccccc23)c1 [Compound 147, (2,5-Dimethoxybenzyl)-(2-phenylquinazolino-4-yl)-amine]
Glucose absorption [1]: 1.3
AMPK activity (degree of phosphorylation of serine-79 and threonine-172) [2]: 1.8
AMPK activity (class: degree of phosphorylation of threonine-172) [2]: strong (“strong” means that the degree of phosphorylation of threonine-172 increased by 3 times or more)

From patent publication US20080207614A1, “QUINAZOLINE DERIVATIVES FOR THE TREATMENT AND PREVENTION OF DIABETES AND OBESITY” (SK CHEMICALS CO., LTD., priority 2004, published 2008)
